Assay results reported in patent US10835500B2, “Medicament for accelerated wound healing” (Symrise AG, priority 2014, dated 2020).

What was measured:
[1] = system: primary keratinocytes; assay: In vitro wound scratch assay, primary keratinocytes; format: cell-based, human; settings: 500 μM, observed for two days
Excerpt: The MAP kinases p38 and ERK1/2 are often associated with increased proliferation and migration in epidermal wound healing. For this reason, in a further physiological experiment, the effect of Sandalore® on “wound healing” of a confluent cell layer of HaCaT cells or primary keratinocytes was investigated. For this purpose, the wound scratch assay was used, which is an established in vitro method for initial investigations of wound healing processes in keratinocytes.
Effect of Sandalore® stimulation on human keratinocytes in an in vitro “wound healing” assay. Investigation of the “wound healing rate” of A) primary keratinocytes and B) HaCaT cells by means of a wound scratch assay in the presence of Sandalore® (500 μM) or 0.1% DMSO as a control. Left: Transmitted light images of the “wound” observed at various times. The growth margin of the cells was surrounded in black. Scale: 200 μm. Right: Quantitative evaluation of the wound scratch assay. The areas of the wounds were measured and compared to the initial wound (0 h). Mean values including standard error. Mann-Whitney U test; n=4 experiments. *: p<0.05; ***: p<0.001. […] The measured wound areas of the treated cells (after 48-hour stimulation) were compared to the control (0.1% DMSO). […] The measured wound areas of the treated cells were compared to the control (0.1% DMSO). […]

[2] = biological target: T1, recombinantly expressed OR2AT4 (Homo sapiens, UniProt A6NND4); assay: CRE dual luciferase assay in OR2AT4-transfected Hana3A cells; format: cell-based; settings: for activation of the recombinant receptor in the CRE luciferase assay: 4-hour incubation, OR2AT4 expressed in Hana3A cells; for concentration required to produce a significant effect at the receptor: CRE luciferase assay
T1 construct: expressed in transfected cells; host or cells: Hana3A cells, transient transfection with pcDNA3-OR2AT4 by the calcium phosphate method
T1 sequence (A6NND4 1-320): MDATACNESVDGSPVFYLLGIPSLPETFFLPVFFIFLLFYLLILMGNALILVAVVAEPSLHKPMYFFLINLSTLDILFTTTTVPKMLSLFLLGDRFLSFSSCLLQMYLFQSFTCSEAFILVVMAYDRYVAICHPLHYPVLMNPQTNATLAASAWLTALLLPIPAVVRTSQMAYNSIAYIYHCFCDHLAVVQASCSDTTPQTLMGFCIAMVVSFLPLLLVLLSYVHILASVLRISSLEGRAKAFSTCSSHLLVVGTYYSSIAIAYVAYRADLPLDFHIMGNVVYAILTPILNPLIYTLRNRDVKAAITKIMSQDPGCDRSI
Excerpt: In order to verify calcium imaging results and investigate dose-dependent activation of OR2AT4, a further method of deorphanization based on a dual luciferase system was used. In this method, in addition to the OR, two luciferases were introduced into the Hana3A cells. When the expressed OR is activated by an odorant and cAMP is formed in the further course of the signal cascade, this initiates expression of firefly luciferase via CRE (cAMP response elements). The second luciferase, Renilla luciferase, serves as a control for transfection and vitality of the cells. By calculating the two luciferase values, the activation capacity of an OR by an odorant can be determined. In the CRE luciferase assay, the odorant remains on the cells for hours in order to ensure that the luciferase is expressed. Because of the longer incubation time of the odorants and the possibility of activating more receptors in a 96-well format, this method is more sensitive than calcium imaging and is well-suited for establishing dose-response relationships.
For Brahmanol, however, a higher concentration (≥75 μM) was required than for Sandalore® (≥25 μM) in order to produce a significant effect at the receptor (FIG. 3c).
Determination of receptive field of recombinantly expressed OR2AT4. […] As a control, untransfected Hana3A cells were simulated with Sandalore®. 100 μM of ATP was used at the end of each measurement as a positive control stimulus. […] The mean response rate including standard error of the cells is shown relative to the Ringer control. […] Isobornyl.: isobornyl cyclohexanol; S. öl: sandalwood oil. Kruskal-Wallis test with multiple comparison. *: p<0.05. […] Significance was determined between Hana3A cells transfected with OR2AT4-pcDNA3 and pcDNA3 without an insert. The dots show mean normalized luciferase-activity including standard error. Mann-Whitney U test; n=3 experiments. *: p<0.05; **: p<0.01; ***: p<0.001.

[3] = system: IL-6, IL-8, tumor necrosis factor; assay: Quantitative real-time PCR of the other interleukins in HaCaT cells; format: cell-based, human; settings: 6 or 24 hours, 500 μM
Description: (§1) In order to investigate interleukin secretion, quantitative real-time PCR was first carried out. For this purpose, RNA from HaCaT cells was used that had previously been stimulated for 6 or 24 hours with Sandalore®. Detection was carried out with specific primers of various interleukins (IL-1α, IL-1β, IL-6, IL-8) and tumor necrosis factor (TNF▪). […] In order to corroborate the results, an ELISA assay was carried out, in which the secreted interleukins in the supernatant of the cells can be detected by means of an immunological reaction. By means of the assay used, secretion of the interleukins (IL-1α, IL-1β, IL-2, IL-4, IL-6, IL-8, IL-10, IL-12, and IL-17α), TNFα, γ-interferon (IFNγ), and granulocyte macrophage colony-stimulating factor (GMCSF) was investigated.
(§2) Investigation of interleukin secretion and phosphorylation of Akt protein kinase after Sandalore® stimulation. A) Investigation of the regulation of interleukins in HaCaT cells by means of qRT-PCR after stimulation with Sandalore® (500 μM) for 6 h and 24 h. 0.1% DMSO was used as a control. GAPDH was used as a reference gene, and the relative expression between untreated and stimulated cells was determined. Mean values including standard error. n=3 experiments. […] The measured optical density of the treated cells at 450 nm was expressed relative to the background. […]

[4] = system: IL-1α; assay: ELISA of secreted IL-1α in supernatant of HaCaT cells; format: cell-based, human; settings: 24-hour stimulation, 500 μM
Description: as §1, §2

SMILES	faster closing of the scratch [1]	activation of the recombinant receptor in the CRE luciferase assay [2]	concentration required to produce a significant effect at the receptor [2]	expression rate of the other interleukins [3]	secretion of IL-1α relative to the control (0.1% DMSO) [4]
CC1=CCC(CCC(C)CO)C1(C)C (centres unmarked) [Brahmanol®]	34%	significant dose-dependent activation	≥ 75 µM		
CC1=CCC(CCC(C)C(C)O)C1(C)C (centres unmarked) [Sandalore®]	34%	significant dose-dependent activation	≥ 25 µM	no increase in the expression rate	significantly increased secretion
